Laboratory results as given in article PMC11555526, “Development of 2-Aminoadenine-Based Proteolysis-Targeting Chimeras (PROTACs) as Novel Potent Degraders of Monopolar Spindle 1 and Aurora Kinases” (ACS Pharmacology & Translational Science, 2024).

Key:
Type in all cases: cell-based
TTK = target: T1, TTK (Homo sapiens, UniProt P33981); assay: Immunoblot of TTK in CALU1 cells; design: endogenous in cells; conditions: 6 h
T1 sequence (P33981 1-857): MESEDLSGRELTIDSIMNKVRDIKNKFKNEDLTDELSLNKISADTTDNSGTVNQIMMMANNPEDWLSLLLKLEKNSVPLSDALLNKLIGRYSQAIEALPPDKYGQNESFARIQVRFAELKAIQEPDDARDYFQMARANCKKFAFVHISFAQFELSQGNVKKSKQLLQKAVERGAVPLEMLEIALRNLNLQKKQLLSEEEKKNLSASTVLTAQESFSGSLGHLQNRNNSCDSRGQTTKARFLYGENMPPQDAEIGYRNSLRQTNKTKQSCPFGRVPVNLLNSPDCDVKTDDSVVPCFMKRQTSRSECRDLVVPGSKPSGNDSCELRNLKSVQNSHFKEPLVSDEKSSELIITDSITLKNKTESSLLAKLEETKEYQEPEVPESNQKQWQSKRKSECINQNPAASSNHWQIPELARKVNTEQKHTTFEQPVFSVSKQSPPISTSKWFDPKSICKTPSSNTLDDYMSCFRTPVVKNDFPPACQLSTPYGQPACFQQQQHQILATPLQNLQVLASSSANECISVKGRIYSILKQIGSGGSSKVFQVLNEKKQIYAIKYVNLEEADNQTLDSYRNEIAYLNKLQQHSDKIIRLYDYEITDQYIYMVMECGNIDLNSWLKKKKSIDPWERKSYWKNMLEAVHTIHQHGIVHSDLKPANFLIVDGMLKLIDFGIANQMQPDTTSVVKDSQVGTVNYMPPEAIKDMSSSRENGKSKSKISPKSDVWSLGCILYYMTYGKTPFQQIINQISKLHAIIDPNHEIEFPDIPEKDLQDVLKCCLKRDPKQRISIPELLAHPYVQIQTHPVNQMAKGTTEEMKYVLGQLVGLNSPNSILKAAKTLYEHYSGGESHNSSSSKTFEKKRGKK
Protocol: The cells were treated with compounds or vehicle for indicated time points and lysed in RIPA lysis buffer (50 mM HEPES pH 7.9, 140 mM NaCl, 1 mM EDTA, 1% Triton X-100, 0.1% SDS, 0.1% sodium deoxycholate) containing protease and phosphatase inhibitors (Sigma) for 20 min at 4 °C. Cell lysates were cleared by centrifugation, and protein concentration was determined with bicinchoninic acid assay. Equal amounts of protein per sample were separated by Bis-Tris-PAGE and transferred to PVDF membranes (Millipore). The membranes were blocked with 5% (w/v) nonfat dry milk in TBS-T [20 mM Tris–HCl, pH 7.5, 150 mM NaCl, 0.1% (v/v) Tween-20] for 1 h at room temperature and incubated with primary antibody at 4 °C overnight. Visualization was carried out using horseradish peroxidase (HRP)-labeled secondary antibodies and detected using a chemiluminescent HRP substrate (Millipore) in LAS3000 or LAS4000 mini (Fujifilm). Vinculin, GAPDH, or B-actin were used as a loading control. The loading control was probed along with the target antibody by cutting the membrane. For targets with similar molecular weights, the samples were run in duplicate and probed with their respective loading controls, although only one control was shown in the figure for all targets. The signal was quantified using ImageJ or Image Studio Lite against the corresponding loading controls. Antibodies used in this study were as follows: Aurora A/AIK (Cell Signaling Technology, 3092), Aurora B (Bethyl Laboratories, A300–431A), TTK (Santa Cruz Biotechnology, sc-56968), GAPDH (Cell Signaling Technology, 2118), B-Actin (Sigma, A5441), and Vinculin (Sigma, V9131). […]
Figure S2: Cellular degradation studies of SF1-based compounds. […]
(E), 18 (F), and 14 or 20 (G) for 6 h and compared with vehicle treated cells. (H-J) Immunoblots of TTK and AURKB. CALU1 cells were treated with indicated concentration of 14 or 20 (H), 44 or 47 (I), and 46 (J) for 6 h and compared with DMSO treated cells. All HiBiT data are represented as a mean ±s.d. from n=2 replicates. […]

[1] = target: T2, AURKB (MV4-11^AURKB-HiBiT cells) (Homo sapiens, UniProt Q96GD4); assay: HiBiT assay, AURKB degradation; conditions: 6 h treatment; for DC50: read-out: DC50 (half-maximal degradation concentration) AURKB
T2 construct: expressed in transfected cells; host or cells: MV4-11, lentiviral transduction (pRRL-PGK vector)
T2 sequence (Q96GD4 1-345 isoform Q96GD4-5): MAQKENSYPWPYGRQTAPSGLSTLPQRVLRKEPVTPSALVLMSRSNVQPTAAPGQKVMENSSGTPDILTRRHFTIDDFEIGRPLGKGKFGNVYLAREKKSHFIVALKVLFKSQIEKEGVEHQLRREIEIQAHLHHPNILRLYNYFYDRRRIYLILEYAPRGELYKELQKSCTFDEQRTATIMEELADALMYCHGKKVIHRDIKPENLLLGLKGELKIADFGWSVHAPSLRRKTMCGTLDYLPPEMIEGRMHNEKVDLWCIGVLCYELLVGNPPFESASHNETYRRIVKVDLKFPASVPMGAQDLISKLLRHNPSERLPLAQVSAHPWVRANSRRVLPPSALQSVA
Summary of the method: (§1)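 MV4-11 lines stably expressing HiBiT-tagged AURKA, AURKB or TTK (lentiviral) were treated with serial compound dilutions for the indicated times. Remaining tagged protein was read by lytic HiBiT luminescence, and DC50 was fitted with a four-parameter dose–response equation using concentrations showing sigmoidal behaviour.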

[2] = target: T3, TTK (MV4-11^HiBiT-TTK cells) (Homo sapiens, UniProt P33981); assay: HiBiT assay, TTK degradation; design: key to Dmax (maximal degradation) TTK: compounds with degradation less than 15% reported as “inactive”; conditions: 6 h treatment, MV4-11^HiBiT-TTK cells; for DC50: read-out: DC50 (half-maximal degradation concentration) TTK
T3 construct: expressed in transfected cells; host or cells: MV4-11, lentiviral transduction (pRRL-PGK-HiBiT entry vector)
T3 sequence (P33981 1-857): T1 sequence (P33981 1-857)
Summary of the method: as §1

relative TTK level (immunoblot quantification, DMSO = 1.00) (TTK; 10 µM)	Dmax (maximal degradation) AURKB [1] [%]	DC50 [1] [µM]	Dmax (maximal degradation) TTK [2]	DC50 [2] [µM]	relative TTK level (immunoblot quantification, DMSO = 1.00) (TTK; 0.1 µM)	relative TTK level (immunoblot quantification, DMSO = 1.00) (TTK; 0.01 µM)	SMILES	DC50 (half-maximal degradation concentration) AURKB [1]	DC50 (half-maximal degradation concentration) TTK [2]
1.00	38.80	0.168	28.50%	0.396	–	–	CC(C)S(=O)(=O)c1ccccc1Nc1nc(Nc2ccc(N3CCN(C(=O)CCCC(=O)Nc4cccc5c4C(=O)N(C4CCC(=O)NC4=O)C5=O)CC3)cc2)nc2[nH]cnc12 (centres unmarked) [Compound 14]	–	–
–	29.40	0.248	48.33%	0.281	0.87	–	CC(C)S(=O)(=O)c1ccccc1Nc1nc(Nc2ccc(N3CCN(C(=O)CNC(=O)CCCC(=O)Nc4cccc5c4C(=O)N(C4CCC(=O)NC4=O)C5=O)CC3)cc2)nc2[nH]cnc12 (centres unmarked) [Compound 20]	–	–
–	20.30	–	inactive	–	0.79	0.79	Cc1ncsc1-c1ccc(CNC(=O)[C@@H]2C[C@@H](O)CN2C(=O)[C@@H](NC(=O)CCCC(=O)N2CCN(c3ccc(Nc4nc(Nc5ccccc5S(=O)(=O)C(C)C)c5nc[nH]c5n4)cc3)CC2)C(C)(C)C)cc1 [Compound 44]	– (compounds with degradation less than 25% were not calculated and reported as “–”)	– (compounds with degradation less than 25% were not calculated and reported as “–”)
–	32.17	3.69	47.40%	5.71	–	–	Cc1ncsc1-c1ccc(CNC(=O)[C@@H]2C[C@@H](O)CN2C(=O)[C@@H](NC(=O)COCCOCC(=O)N2CCN(c3ccc(Nc4nc(Nc5ccccc5S(=O)(=O)C(C)C)c5nc[nH]c5n4)cc3)CC2)C(C)(C)C)cc1 [Compound 49]	–	–
